{"source": "patent US7485434B2", "about": "“Method for screening compounds for those that modulate transducers of regulated CREB activity” (The Salk Institute for Biological Studies, priority 2005, dated 2009)", "key": {"CREB": {"tested_on": "CREB", "experiment": "CREB Ser133 phosphorylation in liver after IP injection (histochemical and Western blot)", "format": "in vivo", "details": "mice; intraperitoneal administration"}, "TORC2 [1]": {"tested_on": "TORC2", "experiment": "TORC2 localization, Ser171 phosphorylation and promoter recruitment in liver after IP injection", "format": "in vivo", "details": "mice"}, "TORC2 [2]": {"tested_on": "TORC2", "experiment": "TORC2 phosphorylation in primary rat hepatocytes (Western blot)", "format": "cell-based", "details": "primary rat hepatocytes", "source_text": "FIG. 18B illustrates the effect of CHX on levels of phospho (Ser171) TORC2 in primary rat hepatocytes treated with glucagon over a variety of time points, shown in hours. Western blot assay indicates the levels of TORC2, phospho (Ser171) TORC2 and CREB.\nSpecifically, FIG. 19A, top, presents a Western blot showing the effect of US and SIK1 RNAi adenoviruses on the levels of SIK1 protein in rat hepatocytes. FIG. 19A, bottom, presents a Western blot assay with nondiscriminating TORC2 antiserum, showing the effect of SIK1 RNAi adenovirus on TORC2 dephosphorylation (compare P-TORC2 and TORC2 bands) following exposure of primary rat hepatocytes to glucagon (Gluc). The arrow identifies phosphorylated TORC2.\nCells were exposed to AICAR and FSK for 30 minutes. Lower mobility bands (arrow) indicate phosphorylated TORC2 polypeptides.\nRat primary hepatocytes were prepared from 200-300g of Sprague-Dawley rats by collagenase perfusion method as described previously (see Koo et al., 2004). 1×10^6 cells were plated in 6 well plates with medium 199 (Invitrogen, Carlsbad, Calif.) supplemented by 10% FBS, 10 units/ml penicillin, 10 μg/ml streptomycin, and 10 nM dexamethasone for 3-6 hours. After attachment, cells were infected with adenoviruses for 16 hours. Subsequently, cells were maintained in medium 199 without FBS and dexamethasone for 24 hours (for cDNA expression adenoviruses) or 48 hours (for RNAi adenoviruses) and […] forskolin or 100 nM glucagon for 2 hours unless noted otherwise. For experiments with cycloheximide, 10 μg/ml cycloheximide was added 30 minutes prior to the addition of 100 nM glucagon.\nLike other signaling pathways, cAMP stimulates gluconeogenic gene expression with burst-attenuation kinetics (see Sasaki et al., 1984). Following exposure of primary hepatocytes to Forskolin, PEPCK mRNA levels became maximal after 2 hours, returning to near baseline after 4 hours (see FIG. 18A). […] Consistent with this, CHX pre-treatment potentiated gluconeogenic gene expression in primary rat hepatocytes exposed to glucagon 2-3 fold (see FIG. 18C). […]"}, "[3]": {"tested_on": "gluconeogenic genes (PEPCK, PGC-1α, G6Pase)", "experiment": "Q-PCR of gluconeogenic gene expression in primary rat hepatocytes", "format": "cell-based", "details": "primary rat hepatocytes exposed to glucagon; CHX pre-treatment", "protocol": "Specifically, FIG. 17A illustrates the effect of TORC2 on induction of gluconeogenic genes (PEPCK, PGC-1α, G6Pase) by FSK (10 μM, 2 hr) in cultured primary rat hepatocytes infected with TORC2 or control GFP adenovinus as indicated.\nFIGS. 18A-18H illustrate that the induction of the AMP kinase family member SIK1 by CREB during fasting attenuates the gluconeogenic program. Specifically, FIG. 18A illustrates the time course of PEPCK gene expression in primary rat hepatocytes following exposure to FSK. mRNA levels were determined by Q-PCR analysis.\nFIG. 18C illustrates the effect of CHX pretreatment on induction of gluconeogenic genes (PEPCK, PGC-1α, G6Pase) by glucagon in primary rat hepatocytes. Relative mRNA levels are shown.\nFIG. 19B summarizes the effect of SIK1 RNAi on gluconeogenic gene expression in primary rat hepatocytes, presenting Q-PCR analysis showing the relative induction of PEPCK, PGC-1α, and G6Pase mRNAs by glucagon in cells infected with control (US) or SIK1 RNAi expressing adenoviruses.\nFIG. 20D summarizes the effect of AlCAR on expression of gluconeogenic genes (PEPCK, PGC-1α) in primary rat hepatocytes. Cells infected with mutant Ser171Ala TORC2 (171) adenovinus indicated. Treatment with AICAR and FSK is shown.\nRat primary hepatocytes were prepared from 200-300g of Sprague-Dawley rats by collagenase perfusion method as described previously (see Koo et al., 2004). […]"}, "TORC2 [4]": {"tested_on": "TORC2", "experiment": "Immunofluorescence of TORC localization in ATYB1 fibroblasts", "format": "cell-based, human", "details": "ATYB1 cells", "protocol": "Specifically, FIG. 3A presents fluorescence microscopic analysis of Flag-tagged TORC2 in human ATYBI fibroblasts treated with forskolin (10 μM) or control vehicle for 30 minutes as indicated.\nFIG. 3B illustrates the effect of exportin inhibitor leptomycin B (LMB) on nuclear targeting of TORC2 in transfected ATYB1 fibroblasts. DAPI staining is shown alongside to indicate nuclei.\nFIG. 7C, top panels, illustrate the effect of SIK2 (or related family members) on TORC2 subcellular localization. Immunofluorescence microscopy is presented for ATYB1 cells transfected with Flagtagged TORC2 plus wild-type or PKA phosphorylation defective SIK2 (Ser587Ala) as indicated. DAP1 staining is shown below each panel. FIG. 7C, bottom panels, illustrate the effect of Ser171 Ala mutagenesis on cellular localization of TORC2. Treatment with forskolin is indicated.\nFIG. 13, top panels, illustrates the cellular localization of endogenous TORC proteins in ATYBI cells using TORC specific antiserum. The effect of forskolin (10 μM, 30 minutes) and leptomycin B (LMB, 10 ng/ml, 2 hr) treatment is shown. DAP1 staining is shown below to visualize the nuclei. FIG. 13, bottom panel, illustrates the effect of LMB treatment on TORC1 localization in ATYBI cells transfected with flag-tagged TORC1 expression vector. TORC1 localization was followed using anti-flag antiserum. DAP1 staining is shown alongside. […]"}, "CREB target gene NR4A2": {"tested_on": "CREB target gene NR4A2", "experiment": "Quantitative PCR of CREB target gene NR4A2 in MIN6 insulinoma cells", "format": "cell-based", "protocol": "FIG. 1B presents quantitative PCR (Q-PCR) analysis of the CREB target gene NR4A2 in MIN6 insulinoma cells exposed to glucose (20 mM) and/or exendin-4 (10 nM).\nCells were treated with cAMP agonist (Forskolin, 10 μM) and KCl (45 mM) or vehicle control. For glucose experiments, MIN6 cells were starved overnight in DME containing 2.75 mM glucose plus 16 mM mannitol and 10% FBS. The next day the medium was changed for the indicated times+inhibitor. Total RNA from treated MIN6 or HIT cells was extracted using an RNeasy mini-kit (Qiagen, Valencia, Calif.). 500 ng-1 μg of total RNA was used for generating cDNA with Superscript II enzyme (Invitrogen, Carlsbad, Calif.). cDNAs were analyzed by quantitative PCR using SYBR green PCR kit and an ABIPRISM 7700 Sequence detector (Perkin Elmer, Foster City, Calif.). All PCR data for CREB target NR4A2 (Conkright et al., 2003b) was normalized to ribosomal L32 or 36B4 expression in the corresponding sample.\nHamster insulinoma (HIT) cells were employed to test the relative effects of cAMP and calcium signals on CREB activity. Opening of voltage-sensitive L-type calcium channels in response to KC1 depolarization induced the CREB-dependent EVX-1 promoter (Conknight et al., 2003b) 5-fold in HIT cells, whereas addition of cAMP agonist stimulated the reporter 10-fold (see FIG. 1A). […]"}, "β cell": {"tested_on": "β cell", "details": "organ transplant recipients receiving chronic immunosuppressive therapy; cited from earlier work"}}, "data": [{"compound": "glucagon", "values": [{"measurement": "CREB Ser133 phosphorylation in liver", "setting": "CREB", "result": "promote CREB Ser133 phosphorylation in liver"}, {"measurement": "time to CREB Ser133 phosphorylation in liver", "setting": "CREB", "result": "≤ 10", "unit": "min"}, {"measurement": "recruitment of TORC2 to gluconeogenic genes (ChIP of liver tissue)", "setting": "TORC2 [1]; 10 minutes after IP administration", "result": "promoted recruitment of TORC2 to gluconeogenic genes"}, {"measurement": "TORC2 phosphorylation at Ser171 in liver", "setting": "TORC2 [1]; IP administration", "result": "dephosphorylated"}, {"measurement": "nuclear translocation of hepatic TORC2", "setting": "TORC2 [1]; IP administration", "result": "induced translocation of TORC2 to liver nuclei"}, {"measurement": "time to translocation of TORC2 to liver nuclei", "setting": "TORC2 [1]; IP administration", "result": "≤ 10", "unit": "min"}, {"measurement": "TORC2 phosphorylation at Ser171", "setting": "TORC2 [2]; 3 hours after stimulation", "result": "strongly induced"}]}, {"compound": "C[C@@H]1C[C@@H]([C@H](O)CC2CC(=O)NC(=O)C2)C(=O)[C@@H](C)C1", "note": "[cycloheximide]", "values": [{"measurement": "potentiation of gluconeogenic gene expression", "setting": "[3]", "result": "2-3 fold"}, {"measurement": "effect on TORC2 Ser171 phosphorylation by glucagon at 3 hours", "setting": "TORC2 [2]; CHX pre-treatment 10 μg/ml", "result": "blocked phosphorylation of TORC2 at Ser171"}]}, {"compound": "CCC(=C/[C@H](C)C/C=C/C(C)=C/[C@@H](C)C(=O)[C@@H](C)[C@H](O)[C@@H](C)C/C(C)=C/C(=O)O)/C=C/[C@@H]1OC(=O)C=C[C@@H]1C", "note": "[leptomycin B]", "values": [{"measurement": "time to nuclear accumulation of TORC", "setting": "TORC2 [4]", "result": "30 to 60", "unit": "min"}, {"measurement": "nuclear accumulation of TORC", "setting": "TORC2 [4]; forskolin 10 μM or LMB 10 ng/ml", "result": "strongly enhanced nuclear accumulation"}]}, {"compound": "Exendin-4", "values": [{"measurement": "NR4A2 mRNA levels enhanced", "setting": "CREB target gene NR4A2; co-stimulation glucose (20 mM) plus exendin-4 (10 nM)", "result": 35, "unit": "fold"}]}, {"compound": "O=C[C@H](O)[C@@H](O)[C@H](O)[C@H](O)CO", "note": "[glucose]", "values": [{"measurement": "induction of NR4A2 expression", "setting": "CREB target gene NR4A2; high glucose (20 mM)", "result": 5, "unit": "fold"}]}, {"compound": "C=CC[C@@H]1/C=C(\\C)C[C@H](C)C[C@H](OC)[C@H]2O[C@@](O)(C(=O)C(=O)N3CCCC[C@H]3C(=O)O[C@H](/C(C)=C/[C@@H]3CC[C@@H](O)[C@H](OC)C3)[C@H](C)[C@@H](O)CC1=O)[C@H](C)C[C@@H]2OC", "note": "[FK506]", "values": [{"measurement": "β cell failure and diabetes", "setting": "β cell", "result": "cause β cell failure and diabetes with high frequency"}]}]}
